Assay results reported in ChEMBL document CHEMBL1240342, “Molecular modeling studies of vascular endothelial growth factor receptor tyrosine kinase inhibitors using QSAR and docking” (J Mol Graph Model, 2009).

Target: Vascular endothelial growth factor receptor 2 (Homo sapiens, UniProt P35968)
Experiment: Inhibition of human VEGFR2 after 60 mins

Vascular endothelial growth factor receptor 2, sequence (P35968 whole entry): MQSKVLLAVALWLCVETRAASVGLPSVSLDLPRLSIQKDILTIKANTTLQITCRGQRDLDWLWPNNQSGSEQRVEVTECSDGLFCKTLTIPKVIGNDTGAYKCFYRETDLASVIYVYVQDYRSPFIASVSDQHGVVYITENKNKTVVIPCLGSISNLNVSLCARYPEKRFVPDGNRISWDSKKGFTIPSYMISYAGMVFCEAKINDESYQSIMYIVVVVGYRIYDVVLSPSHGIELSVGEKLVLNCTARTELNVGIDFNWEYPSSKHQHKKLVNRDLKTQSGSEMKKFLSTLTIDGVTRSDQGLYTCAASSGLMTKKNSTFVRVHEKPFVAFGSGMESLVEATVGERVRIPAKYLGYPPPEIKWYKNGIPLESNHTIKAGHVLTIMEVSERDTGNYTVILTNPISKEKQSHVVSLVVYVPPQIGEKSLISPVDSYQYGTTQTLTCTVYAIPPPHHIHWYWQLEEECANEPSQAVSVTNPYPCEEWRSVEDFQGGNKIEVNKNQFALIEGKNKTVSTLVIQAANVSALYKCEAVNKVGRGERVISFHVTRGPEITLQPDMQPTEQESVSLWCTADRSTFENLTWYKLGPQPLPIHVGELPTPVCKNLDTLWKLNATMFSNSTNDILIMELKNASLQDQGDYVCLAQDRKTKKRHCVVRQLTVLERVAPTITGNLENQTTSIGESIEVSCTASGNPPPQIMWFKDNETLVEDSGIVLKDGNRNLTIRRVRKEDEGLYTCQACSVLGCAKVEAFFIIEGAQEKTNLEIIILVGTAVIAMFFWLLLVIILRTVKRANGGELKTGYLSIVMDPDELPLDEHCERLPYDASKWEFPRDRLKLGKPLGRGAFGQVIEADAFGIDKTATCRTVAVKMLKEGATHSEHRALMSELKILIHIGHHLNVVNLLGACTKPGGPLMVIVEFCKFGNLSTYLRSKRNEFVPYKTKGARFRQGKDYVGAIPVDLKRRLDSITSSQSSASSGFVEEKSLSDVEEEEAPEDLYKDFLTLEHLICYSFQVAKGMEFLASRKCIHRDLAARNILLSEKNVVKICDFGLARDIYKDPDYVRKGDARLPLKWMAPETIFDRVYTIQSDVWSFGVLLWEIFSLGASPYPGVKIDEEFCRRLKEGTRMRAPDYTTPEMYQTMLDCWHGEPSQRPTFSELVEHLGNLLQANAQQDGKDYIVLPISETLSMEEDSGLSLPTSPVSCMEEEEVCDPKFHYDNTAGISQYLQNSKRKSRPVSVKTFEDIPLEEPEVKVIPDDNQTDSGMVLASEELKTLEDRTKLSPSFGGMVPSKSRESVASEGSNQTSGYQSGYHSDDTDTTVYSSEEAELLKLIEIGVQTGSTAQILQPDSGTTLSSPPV

| SMILES | IC50 |
| --- | --- |
| COc1cc2nccc(Oc3ccc4c(c3)OCCN4C(=O)Nc3ccc(C)cc3)c2cc1C(C)=O | 0.501 nM |
| COc1cc2nccc(Oc3ccc4c(C(N)=O)cccc4c3)c2cc1C(C)=O | 1.2 nM |
| COc1cc2nccc(Oc3ccc4c(C(=O)Nc5ccc(Cl)cc5)cccc4c3)c2cc1C(C)=O | 0.2 nM |
| COc1cc2nccc(Oc3ccc4c(c3)OCCN4C(=O)Nc3ccc(Cl)cc3)c2cc1C(C)=O | 0.603 nM |

Further lines, results first:

| IC50 | SMILES |
| --- | --- |
| 12 nM | COc1cc2nccc(Oc3ccc4c(C(=O)NC5CCCC5)cccc4c3)c2cc1OC |
| 2.14 nM | COc1cc2nccc(Oc3ccc4c(C(=O)NC5CCC5)cccc4c3)c2cc1OC |
| 5.5 nM | COc1cc2nccc(Oc3ccc4c(C(=O)NC(C)C)cccc4c3)c2cc1OC |
| 3.8 nM | COc1cc2nccc(Oc3ccc4c(C(=O)NCC(F)F)cccc4c3)c2cc1OC |
| 21.9 nM | COCCNC(=O)c1cccc2cc(Oc3ccnc4cc(OC)c(C(C)=O)cc34)ccc12 |
| 0.372 nM | COc1cc2nccc(Oc3ccc4c(C(=O)NC5CC5)cccc4c3)c2cc1C(C)=O |
